According to publication PMC3929086, “Targeted manipulation of the sortilin–progranulin axis rescues progranulin haploinsufficiency” (Human Molecular Genetics, 2013):
“Also recorded” adds a separate entry of the source.

Legend:
[1] = test system: SORT1-mediated PGRN endocytosis; assay: Quantitative DyL-rPGRN endocytosis assay in COS-1^SORT1 cells; format: cell-based, human; conditions: 1 h; for inhibition of full-length PGRN endocytosis: COS-1^SORT1, ligand 10 μM (Fig. 4 legend), added simultaneously with DyL-rPGRN, vs vehicle
Method: COS-1 cells seeded on a 96-well black plate 1 day before were transfected with pCMV-SORT1 vector. After 24 h, cells were treated with fluorescence-tagged rPGRN (DyL-rPGRN) pre-labeled by DyLight™ 594 antibody labeling kit (Thermo Scientific). The DyL-rPGRN was diluted in OptiMEM to tested concentrations and incubated with the cells for 1 h for endocytosis. The cells were then washed with cold PBS and then fixed by 4% paraformaldehyde. After washing twice, each well was filled with PBS prior scanning. The total PGRN fluorescent signal from the cells was obtained by a plate reader with 593/618 nm (Ex/Em) settings. The endocytosis signal was normalized by the total nuclei signal obtained by staining with a Hoechst 33342 dye. Baseline endocytosis signal was defined as a signal from medium-only-treated cells, whereas the 100% endocytosis level was set as the signal obtained from cells treated with 50 nM DyL-rPGRN. For testing SORT1 ligands, DyL-rPGRN and the peptide were added simultaneously to the cells. For testing of PGRN binders, the binder was pre-incubated with DyL-rPGRN for 1 h before adding to the cells. For qualitative analysis, images from each well were captured by BD Pathway 855 system using a 20× magnification setting.

PGRN-SORT1 interaction = assay: PGRN-SORT1 co-immunoprecipitation; format: biochemical, human; conditions: HEK293 lysate with Flag-SORT1, 100 nM rPGRN, peptide at 10 M (sic; method 20 μM), densitometry
Method: HEK293T cells were transfected empty vector or pCMV-SORT1-Flag vector for 48 h. Then, cells were lysed by using Co-IP buffer. Pre-incubation was performed with 300 μg of lysate protein mixed with 20 μM NTS, human PGRN(588–593) peptide or mouse PGRN(584–589) peptide for 1 h. Then, rPGRN (100 nM) was added into the protein G beads pre-cleared supernatant and mixed for 30 min. Next, anti-Flag M2 agarose (Sigma) was added and mixed for another 4 h. The agarose was collected by centrifugation at 1000 g for 3 min and washed with Co-IP buffer six times. Captured protein was eluted from the beads using loading buffer and analyzed by western blot.

SORT1–PGRN interaction = assay: MSD-based SORT1–PGRN interaction assay; format: biochemical, human; conditions: 200 nM tagged rPGRN, SORT1-Flag captured on MSD plate
Method: M17 cells were transfected with pCMV-SORT1-Flag for 48 h. Then, the cell lysate was harvested by the same method used in the co-immunoprecipitation assay. Expression of SORT1-Flag protein was confirmed by western blot. MSD plate was first coated with the Flag M2 antibody (Sigma). Following an overnight incubation at 4°C, the plate was blocked for 2 h and then washed prior to addition of 5 µg/well of lysate protein containing SORT1-Flag protein. After overnight incubation at 4°C, it was then washed and added with 200 nM of either N-6His- or C-6His-tagged rPGRN pre-incubated with either vehicle, 20 µM or 200 µM of BVFP, for 30 min at room temperature. Then plate was then incubated for 2 h, washed and incubated with a mixture of PCDGF antibody and a SULFO-TAG-labeled anti-rabbit IgG antibody for 2 h. After final wash, the plate was read by the MSD Sector Imager 2400.

SORT1 [2] = assay: PGRN endocytosis in M17 cells overexpressing SORT1; format: cell-based; conditions: for endocytosis of rPGRN: M17^SORT1 cells, rPGRN 500 ng/ml, 60 min, immunofluorescence
Method: M17 cells seeded in 12-well culture plates (western blot) or on glass coverslips in 24-well culture plate (immunofluorescence) were transfected with pEGFP-N1 (Clontech) or pCMV-SORT1 (OriGene) vectors. Next day, the cells were changed into serum-free medium 1 h before addition of rPGRN (500 ng/ml) and treated for 60 min. The cells were then put on ice and washed with cold PBS. For western blot, cells were lysed in cold M-Per protein extraction buffer followed by standard procedures as mentioned. For immunofluorescence analyses, cells were fixed in 4% paraformaldehyde solution followed by PBS washes. The cells were then incubated in blocking buffer (PBS, 5% goat serum, 0.1% saponin) for 1 h at room temperature followed by incubation in primary antibody overnight at 4°C. The cells were incubated with secondary antibodies (1:1000) for 1 h at room temperature. The coverslips were then mounted onto slides and waited overnight before analysis. Image analysis was performed by Zeiss LSM 510 META confocal microscope using 60× magnification setting.

neutrophil elastase = assay: Neutrophil elastase digestion of synthetic PGRN peptide, MALDI-MS; format: in vitro ADME
Method: An enzymatic reaction was set up with 7 μg of custom-synthesized PGRN(584–593) peptide (Mayo peptide synthesis core) and 20 μg of NE in a 25 μl reaction at 37°C. Every 10 min, 4 μl of the mixture was collected and diluted 10 times in a solvent mixture (50% acetonitrile:50% water:0.1% acetic acid) until 1 h had passed. For MALDI-MS analysis, 1 μl of the diluted reaction mixture was dried on a MS gold chip and then layered with a concentrated sinipinic acid matrix on top for crystallization. Afterwards, the samples were analyzed by the Bio-Rad MALDI-MS system.

[3] = test system: PGRN endocytosis in SORT1^KO-hESCs; assay: DyL-rPGRN endocytosis in SORT1^KO-hESCs; format: cell-based, human; conditions: SORT1^KO-hESC compared with WT-hESC
Excerpt: To determine whether BVFP, when bound to PGRN, disrupts full-length PGRN and SORT1 binding, we devised a SORT1-dependent rPGRN precipitation assay utilizing the Meso-Scale Discovery (MSD) system (Supplementary Material, Fig. S4A and B). […] To include a higher-affinity PGRN588–593 motif binder as a positive control, an antibody targeting the motif, PGRN-CT antibody, was made for validating the approach (Fig. 5F). […] First, we found SORT1 was abundantly expressed in the wild-type hESCs (Fig. 5H). Similar to the results from COS-1^SORT1 cells, BVFP and PGRN-CT antibody inhibited endocytosis of DyL-rPGRN by 22 and 39%, respectively, under the same experimental conditions in wild-type hESCs (Fig. 5I left).
COS-1 cells seeded on a 96-well black plate 1 day before were transfected with pCMV-SORT1 vector. After 24 h, cells were treated with fluorescence-tagged rPGRN (DyL-rPGRN) pre-labeled by DyLight™ 594 antibody labeling kit (Thermo Scientific). The DyL-rPGRN was diluted in OptiMEM to tested concentrations and incubated with the cells for 1 h for endocytosis. The cells were then washed with cold PBS and then fixed by 4% paraformaldehyde. After washing twice, each well was filled with PBS prior scanning. The total PGRN fluorescent signal from the cells was obtained by a plate reader with 593/618 nm (Ex/Em) settings. […]

SORT1 [4] = assay: SORT1 protein level in M17 cells (western blot); format: cell-based; conditions: M17, rPGRN at 50 ng/ml, 1, 2 and 4 hours
Method: PGRN, SORT1, GFP, GAPDH and β-actin proteins were analyzed using 10% Tris–glycine polyacrylamide gel by SDS–PAGE. After electrophoresis, proteins on gel were transblotted to PVDF membranes followed by standard immunoblotting protocols.

ALRQLL [human PGRN588–593, custom-synthesized C-terminal peptide of human PGRN, -ALRQLL]
inhibition of full-length PGRN endocytosis [1]: 93%
inhibition of PGRN–SORT1 co-immunoprecipitation (PGRN-SORT1 interaction): significantly reduced the amount of rPGRN

ELYENKPRRPYIL [NTS, neurotensin, reference compound]
inhibition of full-length PGRN endocytosis [1]: 90%
inhibition of PGRN–SORT1 co-immunoprecipitation (PGRN-SORT1 interaction): significantly reduced the amount of rPGRN

N-rP: human recombinant PGRN with 6-histidine tag on the amino-terminus
rPGRN binding to immobilized SORT1 (SORT1–PGRN interaction): specific binding signal
endocytosis of tagged rPGRN (SORT1 [2]; M17 cells expressing titrated amounts of SORT1, western blot): dependently endocytosed

PGRN574–593 peptide: synthetic PGRN574–593 peptide, molecular weight 2430 Da
cleavage by neutrophil elastase (neutrophil elastase; 7 μg peptide, 20 μg NE, 25 μl, 37°C, sampled every 10 min to 1 h): enzymatically cleaved by recombinant elastase (EL) in a time-dependent manner
cleavage site / residues removed by elastase (neutrophil elastase; product 1806 Da from 2430 Da): between residues Ala-588 and Leu-589; also recorded: last five residues were removed by EL

VPRPLL [mouse Pgrn584–589, mouse ortholog peptide of PGRN588–593, -VPRPLL]
inhibition of full-length PGRN endocytosis [1]: 73%
inhibition of PGRN–SORT1 co-immunoprecipitation (PGRN-SORT1 interaction): significantly reduced the amount of rPGRN

B1: DyL-rPGRN: DyLight™-594 fluorescence-labeled rPGRN (conjugate, UniProt P28799 1-593, looked up)
chain: MWTLVSWVALTAGLVAGTRCPDGQFCPVACCLDPGGASYSCCRPLLDKWPTTLSRHLGGPCQVDAHCSAGHSCIFTVSGTSSCCPFPEAVACGDGHHCCPRGFHCSADGRSCFQRSGNNSVGAIQCPDSQFECPDFSTCCVMVDGSWGCCPMPQASCCEDRVHCCPHGAFCDLVHTRCITPTGTHPLAKKLPAQRTNRAVALSSSVMCPDARSRCPDGSTCCELPSGKYGCCPMPNATCCSDHLHCCPQDTVCDLIQSKCLSKENATTDLLTKLPAHTVGDVKCDMEVSCPDGYTCCRLQSGAWGCCPFTQAVCCEDHIHCCPAGFTCDTQKGTCEQGPHQVPWMEKAPAHLSLPDPQALKRDVPCDNVSSCPSSDTCCQLTSGEWGCCPIPEAVCCSDHQHCCPQGYTCVAEGQCQRGSEIVAGLEKMPARRASLSHPRDIGCDQHTSCPVGQTCCPSLGGSWACCQLPHAVCCEDRQHCCPAGYTCNVKARSCEKEVVSAQPATFLARSPHVGVKDVECGEGHFCHDNQTCCRDNRQGWACCPYRQGVCCADRRHCCPAGFRCAARGTKCLRREAPRWDAPLRDPALRQLL
modifications: full-length DyLight 594 label
notes: DyLight™-594 fluorescence-labeled rPGRN
DyL-rPGRN endocytosis response ([1]; COS-1^SORT1, DyL-rPGRN 0 to 50 nM, 593/618 nm): linear, non-saturated endocytosis response
DyL-rPGRN endocytosis signal [3]: significantly lower signal compared with the WT-hESCs

B2: rPGRN1-588: recombinant carboxyl-terminal-truncated PGRN 1–588 (protein)
chain: TRCPDGQFCPVACCLDPGGASYSCCRPLLDKWPTTLSRHLGGPCQVDAHCSAGHSCIFTVSGTSSCCPFPEAVACGDGHHCCPRGFHCSADGRSCFQRSGNNSVGAIQCPDSQFECPDFSTCCVMVDGSWGCCPMPQASCCEDRVHCCPHGAFCDLVHTRCITPTGTHPLAKKLPAQRTNRAVALSSSVMCPDARSRCPDGSTCCELPSGKYGCCPMPNATCCSDHLHCCPQDTVCDLIQSKCLSKENATTDLLTKLPAHTVGDVKCDMEVSCPDGYTCCRLQSGAWGCCPFTQAVCCEDHIHCCPAGFTCDTQKGTCEQGPHQVPWMEKAPAHLSLPDPQALKRDVPCDNVSSCPSSDTCCQLTSGEWGCCPIPEAVCCSDHQHCCPQGYTCVAEGQCQRGSEIVAGLEKMPARRASLSHPRDIGCDQHTSCPVGQTCCPSLGGSWACCQLPHAVCCEDRQHCCPAGYTCNVKARSCEKEVVSAQPATFLARSPHVGVKDVECGEGHFCHDNQTCCRDNRQGWACCPYRQGVCCADRRHCCPAGFRCAARGTKCLRREAPRWDAPLRDPA
modifications: left off: His6, N-terminal, state not stated
endocytosis of rPGRN (SORT1 [2]): failed to be endocytosed

B3: rPGRN: wild-type human recombinant PGRN protein from stable HEK293 cells (protein)
chain: TRCPDGQFCPVACCLDPGGASYSCCRPLLDKWPTTLSRHLGGPCQVDAHCSAGHSCIFTVSGTSSCCPFPEAVACGDGHHCCPRGFHCSADGRSCFQRSGNNSVGAIQCPDSQFECPDFSTCCVMVDGSWGCCPMPQASCCEDRVHCCPHGAFCDLVHTRCITPTGTHPLAKKLPAQRTNRAVALSSSVMCPDARSRCPDGSTCCELPSGKYGCCPMPNATCCSDHLHCCPQDTVCDLIQSKCLSKENATTDLLTKLPAHTVGDVKCDMEVSCPDGYTCCRLQSGAWGCCPFTQAVCCEDHIHCCPAGFTCDTQKGTCEQGPHQVPWMEKAPAHLSLPDPQALKRDVPCDNVSSCPSSDTCCQLTSGEWGCCPIPEAVCCSDHQHCCPQGYTCVAEGQCQRGSEIVAGLEKMPARRASLSHPRDIGCDQHTSCPVGQTCCPSLGGSWACCQLPHAVCCEDRQHCCPAGYTCNVKARSCEKEVVSAQPATFLARSPHVGVKDVECGEGHFCHDNQTCCRDNRQGWACCPYRQGVCCADRRHCCPAGFRCAARGTKCLRREAPRWDAPLRDPALRQLL
modifications: left off: His6, N-terminal, state not stated
endocytosis of rPGRN (SORT1 [2]): significantly endocytosed
subcellular localization after endocytosis (SORT1 [2]; M17 cells overexpressing SORT1): endolysosomal localization
SORT1 level after rPGRN treatment (SORT1 [4]): No significant changes in SORT1
